These are literature values, as cited in patent EP0665714B1, “GRANULAR WATER SOLUBLE OR HYGROSCOPIC AGRICULTURAL FORMULATIONS AND METHODS OF MAKING THEM” (BASF CORPORATION, priority 1992, dated 1994).

The conditions of this data set: in general.

As for `C[N+]1(C)CCCCC1.[Cl-]` [mepiquat chloride, 1,1-dimethylpiperidinium chloride], the water solubility entry is reported as “more than 600 g/l”.
